These results are taken from publication PMC7025647, “Identifying the Naphthalene-Based Compound 3,5-Dihydroxy 2-Napthoic Acid as a Novel Lead Compound for Designing Lactate Dehydrogenase-Specific Antibabesial Drug” (Frontiers in Pharmacology, 2020).

Structures are written as SMILES. Where “and” joins values, the source holds several entries; their conditions need not be identical. Equal entries are not always repeated. Where two headings read alike, the source gives them in different places.

Data set [1] has as its system B. microti ATCC PRA-99 strain. Description: Growth inhibition of B. microti in vitro. The format is cell-based, Babesia microti. To be noted: for IC50: Babesia microti. The protocol:
(§1) Three BALB/c mice were intraperitoneally injected with 1 x 10^7 parasites (100 μl fresh blood), and their blood was collected from the tail when parasitemia reached ~60% at day 7 post-infection. The growth inhibition assay of B. microti in vitro was performed by incubating freshly isolated infected mouse red blood cells (RBCs) with varying concentrations of the drugs. Briefly, […] infected mouse RBCs was diluted with 5 μl non-infected mouse RBCs and 10 μl non-infected human RBCs to achieve ~3% parasitemia in a total of 40 μl and suspended in 110 μl of a growth medium (20% bovine serum and 80% medium HL20) containing the indicated concentrations of drugs (50, 100, and 250 μM). The cultures were maintained at 37°C for 72 h in a gas mixture of 2% O2, 5% CO2, and 93% N2. Two naphthalene-based compounds DBHCA and DHNA were prepared as 100 mM stock solutions in DMSO and further diluted with growth medium. Each concentration of the compounds was tested in triplicate, while three wells received a drug-free culture medium as a control. 10 μM diminazene aceturate (DA) was selected as a positive control. Parasitemia was determined at 72 h post-treatment by enumerating a total of at least 1,000 RBCs in a Giemsa-stained thin smear. Differences in the percent parasitemia were statistically analyzed using one-way ANOVA analysis, and the IC50 values were calculated manually for obtaining more reliable data (Käber method). The hemolysis of DBHCA and DHNA against B. microti-free erythrocytes was monitored by cell counting chamber at 72 h post-treatment. All the experiments were separately repeated three times.

Data set [2] has as its target recombinant BmLDH (rBmLDH) (Babesia microti, UniProt I7J7V6). Briefly: biochemical. The format is biochemical. Conditions: for selectivity over human LDH: rBmLDH vs human LDH. The protocol:
The enzyme activity of rBmLDH was analyzed using Lactate Dehydrogenase Activity Assay Kit (Sigma-Aldrich, Shanghai, China) according to the manufacturer’s instruction. Briefly, the enzymatic activity of BmLDH was detected by catalyzing the conversion of lactate to pyruvate, with concomitant reduction of NAD^+ to NADH. The coupled reaction was followed by measuring absorbance at 450 nm and at 37°C. Three naphthalene-based compounds [2,6-naphthalenedicarboxylic acid (NDCA), 1,6-dibromo-2-hydroxynapthalene 3-carboxylic acid (DBHCA), and 3,5-dihydroxy 2-napthoic acid (DHNA)] were purchased from Sigma-Aldrich (Shanghai, China) with 99% purity for NDCA and 97% purity for DBHCA and DHNA. In the inhibitory analysis, three naphthalene-based compounds were prepared as 100 mM stock solution in 100% dimethylsulfoxide (DMSO) ( Table 2 ).
The half-maximal inhibitory concentration (IC50) values were determined in the presence of various concentrations of the three naphthalene-based compounds. […] The absorbance Tinitia and Tfinal (5 min) was measured at 450 nm. XY graphs were drawn by linear regression and error bars represent means ± SD of three independent experiments.

For data set [3], the system named is B. microti-free erythrocytes. Description: Hemolysis of B. microti-free erythrocytes. The format is cell-based. To be noted: drug levels up to 250 µM, 72 h post-treatment. The protocol: as §1, with “Each concentration of the compounds was tested in triplicate, while three wells received a drug-free culture medium as a control. 10 μM diminazene aceturate (DA) was selected as a positive control.” left out, “All the experiments were separately repeated three times.” left out

Data set [4] deals with rBmLDH (Babesia microti, UniProt I7J7V6). Briefly: Surface plasmon resonance binding kinetics (Biacore T200). To be noted: for koff: read-out: k d. The protocol:
The binding properties of the rBmLDH against DBHCA and DHNA were measured separately by SPR experiment with a Biacore T200 system (GE Healthcare, Uppsala, Sweden). Briefly, a sensor chip CM5 was put into a Biacore T200 system and washed with the running buffer (PBST+0.5% DMSO, pH7.5). The CM5 chip was activated by injecting the mixture of 0.1 M N-hydroxysuccinimide (NHS) and 0.4 M 1-ethyl-3-(3-dimethylaminopropyl) carbodiimide hydrochloride (EDC) (1:1, v/v) at a flow rate of 10 μl·min^−1 for 20 min. Then, the rBmLDH diluted to 10 μg·ml^−1 with 10 mM sodium acetate buffer (pH 4.0, 4.5, 5.0, and 5.5) was covalently immobilized on the CM5 chip at a flow rate of 10 μl·min^−1 until the immobilization level of BmLDH reached 2,100 resonance units (RU). Ethanolamine solution was injected to block the remaining unreacted esters. Flow cell 1 was activated and blocked as the reference surface, while flow cell 2 served as the experimental surface. The 100 mM stocks of the two small molecule compounds were further diluted with PBST into 500, 250, 125, 62.5, 31.25, and 15.625 μM. The surface of CM5 sensor chip was fully regenerated using 10 mM glycine pH2.5 at a flow rate of 30 μl min^−1 for 30 s. The SPR kinetic experiments were performed three times and the values were presented as the mean ± SD of three independent experiments.
For binding kinetic assays, standard solutions of two naphthalene-based compounds (DBHCA and DHNA) at different concentrations were tested and the data were fitted with a 1:1 binding kinetic model.

Data set [5] concerns the target human lactate dehydrogenase (HmLDH). More on the design: method as in Conners et al., 2005. To be noted: ref Conners et al., 2005; cited from earlier work.
Data set [6] is described as follows: Cytotoxicity test by MTT method. The data set is classed as cell-based, African green monkey. Conditions: African green monkey, Vero cells (ATCC-CCL-81), MTT, 72 h. How it is done: (§2) Mycoplasma-free Vero cell line (ATCC-CCL-81, immortalized cells) was preserved in liquid nitrogen with the additive of DMSO in the State Key Laboratory of Agricultural Microbiology, Huazhong Agricultural University, China. […] After adding 10 µl MTT (5 mg/ml in medium) into each test well, the plate was further incubated for another 2 h, followed by removing the culture from the incubator and discarding the medium. […] The plate was gently mixed on a gyratory shaker for 10 min and the absorbances were measured at a wavelength of 570 nm using a microplate reader (BioTek, Vermont, USA). The background absorbances of the multi-well plate at 690 nm were subtracted from the 570 nm measurement. […] The CC50 values were calculated using GraphPad Prism 5 (San Diego, CA, USA), and all the cytotoxicity tests were performed three times.

The test system of data set [7] is Vero cells. Description: Cytotoxicity test by MTT method. Conditions: for SI (selectivity index): between B. microti and Vero cells. The data set is classed as cell-based, African green monkey. The protocol: as §2
On the technique in general: Tetrazolium assays rely on reduction of a dye to a coloured formazan, in cell work by metabolically active cells.

Data set [8] deals with Plasmodium falciparum lactate dehydrogenase (PfLDH). To be noted: 2005, cited from earlier work; for IC50: ref Conners et al.
For data set [9], the system named is human LDH-B. More on the design: method as in Deck et al., 1998; Rellinger et al., 2017. To be noted: even at high concentrations; ref Deck et al., 1998; Rellinger et al., 2017; cited from earlier work.
The subject of data set [10] is glyceraldehyde-3-phosphate dehydrogenase. Also noted: method as in Deck et al., 1998; Rellinger et al., 2017. Conditions: even at high concentrations; ref Deck et al., 1998; Rellinger et al., 2017; cited from earlier work.
For data set [11], the system named is B. microti. Also noted: method as in Yu et al., 2019. Conditions: ref Yu et al., 2019; read-out: IC50 against B. microti in vitro; cited from earlier work.
Data set [12] concerns Babesia bovis. Also noted: method as in Bork et al., 2004. Conditions: ref Bork et al., 2004; read-out: IC50 in vitro against B. bovis; cited from earlier work.
In data set [13] the target is BbLDH. To be noted: read-out: K i against BbLDH; ref Bork et al., 2004; cited from earlier work.
In data set [14] the test system is Plasmodium falciparum. More on the design: method as in Vivas et al., 2005. Conditions: ref Vivas et al., 2005; read-out: IC50 against growth of P. falciparum in vitro; cited from earlier work.
The target of data set [15] is LDH-B4. Conditions: mammalian LDHs, competitive with NADH binding; read-out: K i for LDH-B4; cited from earlier work.
Data set [16] has as its target BmLDH. Also noted: method as in Yu et al., 2019. Conditions: ref Yu et al., 2019; read-out: K i against BmLDH; cited from earlier work.
For data set [17], the target named is LDH-C4. To be noted: mammalian LDHs, competitive with NADH binding; read-out: K i for LDH-C4; cited from earlier work.
The target of data set [18] is LDH-A4. Conditions: mammalian LDHs, competitive with NADH binding; read-out: K i for LDH-A4; cited from earlier work.
Setting [19] is: SPR, 1:1 binding model, rBmLDH immobilized on CM5.
[20] abbreviates: 72 h post-treatment, Giemsa smear parasitemia, read-out: IC50 against growth of B. microti in vitro.
The mark [21] stands for this setting: asexual blood stage, 72 h, read-out: PRA-99 IC50.
Setting [22] is: rBmLDH 100 ng, lactate to pyruvate, absorbance 450 nm, 37°C, read-out: BmLDH IC50.

rBmLDH, sequence (I7J7V6 entry or part of it): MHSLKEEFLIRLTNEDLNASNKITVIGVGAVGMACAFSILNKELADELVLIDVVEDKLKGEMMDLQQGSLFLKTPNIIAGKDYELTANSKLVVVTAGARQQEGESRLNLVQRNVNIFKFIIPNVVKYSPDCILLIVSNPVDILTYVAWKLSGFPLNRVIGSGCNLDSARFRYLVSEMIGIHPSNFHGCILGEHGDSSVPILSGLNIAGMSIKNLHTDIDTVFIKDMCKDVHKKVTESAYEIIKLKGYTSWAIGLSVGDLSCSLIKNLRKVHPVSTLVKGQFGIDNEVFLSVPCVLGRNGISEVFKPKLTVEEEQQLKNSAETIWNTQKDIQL
recombinant BmLDH (rBmLDH), sequence (I7J7V6 entry or part of it): as above

On to `CC(=O)NCC(=O)O.CC(=O)NCC(=O)O.N=C(N)c1ccc(N=NNc2ccc(C(=N)N)cc2)cc1` [DA, diminazene aceturate, reference compound], for which the “inhibition of growth of the parasite” value in [1] (positive control at 10 μM, 72 h) is recorded as ~ 75.54%.

As usually defined, the IC50 is the concentration at which inhibition is half-maximal. What is called CC50 is the concentration at which the toxic effect on the cells reaches its halfway point. `O=C(O)c1cc2cc(Br)ccc2c(Br)c1O` [DBHCA, 1,6-Dibromo-2-hydroxynapthalene 3-carboxylic acid]: the IC50 in [2] (BmLDH IC50, rBmLDH 100 ng, lactate to pyruvate, absorbance 450 nm, 37°C) was 54 µM; in [2] (IC50 against BmLDH activity, rBmLDH, mean ± SD of three experiments), 53.9 ± 13.3 µM; in [5] it was 5900 µM; in data set [1] (setting [20]), 84.8 µM; in [1] (setting [21]) it was 85 µM; in data set [8], 310 µM. For the same compound, in data set [2], the “selectivity over human LDH” value is on record as ~ 109 fold. The cellular hemolysis entry in data set [3] is “no cellular hemolysis”. In data set [4], the Kd was 0.0399 µM. Further, the kon in [4] (SPR, 1:1 binding model, rBmLDH immobilized on CM5, read-out: k a) was determined as 37700 M⁻¹ s⁻¹. The koff in [4] (setting [19]) stood at 0.0015 s⁻¹. Also, the CC50 at 72 h in data set [6] (read-out: CC50 Vero) worked out at 217 µM; in data set [6] (read-out: CC50 in Vero cells), 216 ± 18 µM. The “SI (selectivity index)” value in data set [7] came to 2.6.

Consider `O=C(O)c1cc2cccc(O)c2cc1O` [DHNA, 3,5-Dihydroxy 2-napthoic acid], for which the inhibition at 60 µM in data set [2] (at ~60 μM, read-out: rBmLDH activity inhibited) came out at 100%. The IC50 is 30 µM in data set [2] (setting [22]); 30.2 ± 8.49 µM in data set [2] (rBmLDH, mean ± SD of three experiments, read-out: IC50 against BmLDH activity); 85.7 µM in data set [1] (setting [20]); 86 µM in data set [1] (setting [21]); 1700 µM in [8]. In addition, the “selectivity over PfLDH” value in [2] (rBmLDH vs PfLDH) is given as ~ 57 fold. For the same compound, the “selectivity over human LDH” value in data set [2] is recorded as ~ 5,000 fold. Besides, in data set [3], the cellular hemolysis result is on record as “no cellular hemolysis”. For the same compound, in data set [4] (setting [19]), the k a was 20.49 1/Ms and 20.49 ± 4.18 × 10^−1 1/Ms. Also, the Kd in data set [4] (SPR, 1:1 binding model, rBmLDH immobilized on CM5, read-out: K D) turned out to be 37.7 µM. Moreover, the koff in [4] (setting [19]) stood at 0.000772 s⁻¹. For the same compound, the CC50 at 72 h in data set [6] (read-out: CC50 Vero) came to 1900 µM. The “SI (selectivity index)” value in data set [7] worked out at 22.1.

As to `CCCc1c(O)c(O)c(C(=O)O)c2cc(Cc3ccccc3)c(C)cc12` [FX11], in data set [9], the “inhibition of human LDH-B” value is reported as “not”. The “inhibition of glyceraldehyde-3-phosphate dehydrogenase” value in data set [10] is on record as “not”.

On to `O=C(O)c1ccc2cc(C(=O)O)ccc2c1` [NDCA, 2,6-Naphthalenedicarboxylic acid], for which the “inhibitory effect on the BmLDH activity” value in [2] (even at the high concentration of 500 μM) is “no inhibitory effect”. For the same compound, the IC50 was more than 500 µM in data set [2] (setting [22]), 1400 µM in [5] and 5100 µM in data set [8].

Turning to `COc1cccc2c1C(=O)c1c(O)c3c(c(O)c1C2=O)C[C@@](O)(C(=O)CO)C[C@@H]3O[C@H]1C[C@H](N)[C@H](O)[C@H](C)O1` [doxorubicin, reference compound], the inhibition at 3 µM in data set [7] (Chlorocebus sabaeus, Vero, positive control at 3 µM, read-out: inhibition of growth of Vero cells) was approximately 95%.

For the compound `Cc1cc2c(C(C)C)c(O)c(O)c(C=O)c2c(O)c1-c1c(C)cc2c(C(C)C)c(O)c(O)c(C=O)c2c1O` [gossypol], in [2] (read-out: inhibition of the catalytic activity of BmLDH), the inhibition at 0.7 µM is approximately 100%. For the same compound, the figures for the half-inhibitory concentration (IC50) in data set [11], in data set [12] and in data set [14] were 7.07 µM, 50 µM and 15.3 µM, respectively. In addition, the Ki in [13] is 0.085 µM; in data set [15], 1.4 µM; in [16] it was 0.67 µM; in [17] it was 4.2 µM; in [8] (competitive, ref Vivas et al., read-out: K i against PfLDH), 0.7 µM; in data set [18], 1.9 µM.
